In US20120052010A1, “IMAGING TUMOR PERFUSION, OXIDATIVE […] DYNAMIC ACE PET IN PATIENTS WITH HEAD AND NECK CANCER DURING RADIOTHERAPY” (GE HEALTHCARE LIMITED, priority 2009, published 2012):
Values joined by “and” are separate entries in the source; they are usually repeats but may differ in a detail not shown here. Identical values can stand only once.

Key:
[1] = resting normal volunteers, myocardial O2 consumption 3-4 micromole/min/gram; cited from earlier work
[2] = test system: primary tumor, squamous cell carcinoma of the head and neck; assay: Dynamic ACE PET, tumor clearance rate of [11C] (tumor oxidative metabolism, OXm); type: in vivo, human
Experimental: Twenty nine dynamic ACE PET scans were performed in the nine patients. Five patients were scanned with a dedicated PET device (Siemens ECAT HR^+, Knoxyille, Tenn., USA) and PET images were coregistered to dose-planning CT images for anatomical localization. Four patients were scanned with a hybrid PET-CT device (GE Discovery ST, Milwaukee, Wis., USA). ACE PET was studied in all patients within 7 days before the start of radiotherapy (baseline). Due to logistic problems not all patients could be scanned at all subsequent time points. Five patients were scanned after a mean dose of 15 Gy (dose range 9.6-20Gy), 7 patients after a mean dose of 30 Gy (range 24-37Gy) and 8 patients after a mean dose of 55 Gy (range 42-68Gy).
(§1) Ten minutes after the heart scan, the head and neck region was imaged immediately after an intravenous bolus injection of 10 MBq/kg body weight ACE. The scan time was 32 minutes with time frames 12×5 seconds (s), 6×10 s, 4×30 s, 4×60 s, 2×120 s and […].
Primary tumors were clearly visualized in all scans. A time-activity curve (TAC) of the primary tumor was obtained from a region of interest (ROI) delineating the highest uptake in all ACE scans. TACs were analyzed by fitting an exponential curve to the data collected between 4 and 32 min Tumor oxidative metabolism was derived from the below equation.
where Y is the tumor radioactivity (Bq/cc), A is a constant, t is time (min), and OXm is the clearance rate of [^11C] in min^−1. The average R^2 of the fit was 0.93.

[3] = test system: primary tumor, squamous cell carcinoma of the head and neck; assay: Dynamic ACE PET, tumor perfusion (absolute extraction rate and relative perfusion index rF); type: in vivo, human
Experimental: In a subset of ACE scan sessions (n=23) an image-derived arterial input function for absolute quantification of tumor perfusion was acquired by dynamic imaging of the heart immediately after injection of a 0.5 MBq/kg body weight ACE bolus.
as §1
The arterial blood input function was derived by placing a small ROI in the left ventricular cavity of the heart scan to obtain a TAC of the first pass of the bolus. Arterial blood activities were integrated by the area-under-the-curve of the first bolus passage through the chamber and normalized to the injected dose of the subsequent tumor scan.
The peak activity of the primary tumor deposited at the end of the first bolus pass was assessed. The absolute extraction rate (in mL/min/mL tissue) was calculated by dividing the first-pass peak tumor activity by the arterial blood integral, assuming that systemic circulation was unaltered between the heart and tumor scan. As the arterial input was not obtained in all sessions, a relative perfusion index (rF) was quantified by the ratio of initial peak retention in the tumor to that of the cerebellum. […] Absolute quantification of tumor perfusion in 23 scans yielded a mean of 0.47±0.01 mL/min/mL The mean of simultaneous rF measurements was 5.87±0.39 and the two methods were linearly correlated (r=0.57, p=0.005).

[4] = test system: primary tumor, squamous cell carcinoma of the head and neck; assay: FDG-PET tumor glucose uptake (Tglu); type: in vivo, human
Experimental: FDG-PET was performed at baseline using a standard clinical whole-body protocol, in which the head and neck area was scanned one hour after intravenous injection of 5 MBq/kg body weight FDG. Baseline ACE and FDG scans were performed on the same or adjacent days.
Whole-body scanning was performed one hour after intravenous injection of 5 MBq/kg body weight FDG. Six patients were examined by PET/CT and four patients were studied by PET alone. The patients were instructed to remain recumbent and avoid voicing and other uses of neck muscles during the uptake period.
Tumor glucose uptake (Tglu) was measured from the FDG data as standard uptake values (SUV), determined by the radioactivity concentration of the tumor ROI, divided by injected activity per gram body weight.

C[11C](=O)O [ACE, 1-[^11C]-Acetate]
OXm values in myocardium [1]: 0.05 to 0.07 min⁻¹ | OXm, Mean ± SE ([2]; CR group, 15 Gy, N=4): 0.0142 min⁻¹ | OXm, Mean ± SE ([2]; CR group, 30 Gy, N=4): 0.0144 min⁻¹ | OXm, Mean ± SE ([2]; CR group, 55 Gy, N=5): 0.0140 min⁻¹ | OXm, Mean ± SE ([2]; CR group, Baseline, N=6): 0.0122 min⁻¹ | OXm, Mean ± SE ([2]; PR group, 30 Gy, N=3): 0.0126 min⁻¹ | OXm, Mean ± SE ([2]; PR group, 55 Gy, N=3): 0.0110 min⁻¹ | OXm, Mean ± SE ([2]; PR group, Baseline, N=3): 0.0065 min⁻¹ | mean of simultaneous rF measurements ([3]; 23 scans with absolute quantification): 5.87±0.39 | absolute quantification of tumor perfusion (absolute ACE extraction rate), mean ([3]; 23 scans, arterial input from left ventricular blood pool imaging): 0.47 mL/min/mL and 0.47±0.01 mL/min/mL | rF, Mean ± SE ([3]; CR group, 15 Gy): 7.87 | rF, Mean ± SE ([3]; CR group, 30 Gy): 7.29 | rF, Mean ± SE ([3]; CR group, 55 Gy): 5.00 | rF, Mean ± SE ([3]; CR group, Baseline): 5.68 | rF, Mean ± SE ([3]; PR group, 30 Gy): 6.61 | rF, Mean ± SE ([3]; PR group, 55 Gy): 4.51 | rF, Mean ± SE ([3]; PR group, Baseline): 6.42 | extraction rate in cerebellum (reference region) ([3]; all patients): 0.08±0.03 mL/min/mL | primary tumor rF (relative perfusion) ([3]; individual patients (CR and PR), 15 Gy): 6.93 and 5.00 and 8.22 and 7.07 and 9.25 | primary tumor rF (relative perfusion) ([3]; individual patients (CR and PR), 30 Gy): 8.51 and 7.39 and 8.48 and 3.95 and 8.06 and 6.54 and 6.05 | primary tumor rF (relative perfusion) ([3]; individual patients (CR and PR), 55 Gy): 5.78 and 5.00 and 6.34 and 2.20 and 2.81 and 7.76 and 3.64 | primary tumor rF (relative perfusion, tumor/cerebellum initial peak retention) ([3]; individual patients (CR and PR), Baseline): 4.10 and 7.63 and 6.47 and 5.17 and 6.26 and 4.90 and 3.96 and 5.91 and 8.93

OC[C@H]1OC(O)[C@H]([18F])[C@@H](O)[C@@H]1O (stereo partly drawn) [FDG, ^18F-fluoro-2-deoxy-D-glucose]
Tglu (tumor glucose uptake, standard uptake value) ([4]; individual patients, baseline FDG-PET, one hour after i.v. 5 MBq/kg FDG): 4.6 SUV and 13.4 SUV and 8.5 SUV and 6.8 SUV and 4.9 SUV and 16.3 SUV and 13.8 SUV and 3.9 SUV and 26.1 SUV | Tglu, all primary tumors ([4]; nine patients, baseline): 10.9±2.4 SUV
